Measurements from patent publication US5095139A (Ciba-Geigy Corporation, priority 1986, dated 1992).

Key:
Candida albicans = details: cited from earlier work
hyphal fungi = details: cited from earlier work
Saccharomyces cerevisiae = details: cited from earlier work
pronase = pronase from Streptomyces griseus; details: up to 12 hours
thermolysin = thermolysin (2 mg/ml) in 0.05N N-ethylmorpholinium acetate, 0.01 M CaCl2 ×6H2 O (pH 7.8); details: 41° C., up to 30 hours
fungi = test: antifungal activity of isolated tripeptides; assay type: cell-based; details: isolated by HPLC from rhizocticine B isolates
[1] = system: pronase from Streptomyces griseus; test: pronase treatment
Protocol: The enzymatic hydrolysis of rhizocticine B (L-Val-L-Arg-L-APPA) to rhizocticine A with removal of valine is effected with pronase from Streptomyces griseus, a peptidase of low specificity. The enzymatic degradation of L-Val-L-Arg-L-APPA is effected quantitatively within a few minutes (approximately 15 minutes), the antifungal activity being obtained. By removing the N-terminal amino acid valine, rhizocticine A is formed. The hydrolysis is confirmed by thin-layer chromatography and ion-exchanger/amino acid analysis.

solubility = assay type: physicochemical

C[C@H](N)C(=O)N[C@@H](C[C@@H]1CCC(=O)[C@@H]2O[C@H]12)C(=O)O [Bacilysin, N-alanyl-3-(2,3-epoxycyclohexanon-4-yl)-alanine]
inhibition (Candida albicans): inhibits | action (hyphal fungi): virtually no action | inhibition (Saccharomyces cerevisiae): inhibits

L-Arg-L-APPA
not cleaved (pronase): remains inert during the pronase treatment | cleaved bond (thermolysin): L-Arg-L-APPA

L-Val-L-Arg-L-APPA
cleaved bond (pronase): L-Val-L-Arg, approximately 15 minutes

CC[C@H](C)[C@H](N)C(=O)N[C@@H](CCCNC(=N)N)C(=O)N[C@@H](/C=C\CP(=O)(O)O)C(=O)O [rhizocticine C, L-Ile-L-Arg-L-APPA]
antifungal activity (fungi): antifungal

CC(C)[C@H](N)C(=O)N[C@@H](CCCNC(=N)N)C(=O)N[C@@H](/C=C\CP(=O)(O)O)C(=O)O [rhizocticine B, L-Val-L-Arg-L-APPA]
time for quantitative enzymatic degradation (removal of N-terminal valine) ([1]; pronase): approximately 15 minutes | Solubility (solubility; 35% ethanol): readily soluble | Solubility (solubility; apolar solvents): insoluble | Solubility (solubility; ethanol and higher alcohols): moderately soluble | Solubility (solubility; water): readily soluble

CC(C)C[C@H](N)C(=O)N[C@@H](CCCNC(=N)N)C(=O)N[C@@H](/C=C\CP(=O)(O)O)C(=O)O [rhizocticine D, L-Leu-L-Arg-L-APPA]
antifungal activity (fungi): antifungal

N[C@@H](/C=C\CP(=O)(O)O)C(=O)O (stereo in doubt) [L-APPA, L-2-amino-5-phosphono-3-cis-pentenoic acid]
Solubility (solubility; 35% ethanol): readily soluble | Solubility (solubility; apolar solvents): insoluble | Solubility (solubility; ethanol and higher alcohols): moderately soluble | Solubility (solubility; water): readily soluble

N=C(N)NCCC[C@H](N)C(=O)N[C@@H](/C=C\CP(=O)(O)O)C(=O)O [rhizocticine A, L-Arg-L-APPA]
loss of activity of the dipeptide formed ([1]; after 12 hours of pronase treatment): no loss of activity | behaviour during the pronase treatment ([1]; native compound): remains inert | Solubility (solubility; 35% ethanol): readily soluble | Solubility (solubility; apolar solvents): insoluble | Solubility (solubility; ethanol and higher alcohols): moderately soluble | Solubility (solubility; water): readily soluble
